{"source": "patent US9133266B2", "about": "“Vitronectin-derived cell culture substrate and uses thereof” (Wisconsin Alumni Research Foundation, priority 2011, dated 2015)", "key": {"H1 ES cells": {"test_system": "H1 ES cells", "assay": "Media component test: survival and proliferation of dissociated ES cells", "assay_type": "cell-based, human", "conditions": "for initial survival of human ES cells: added to defined medium, FIG. 6F; for requirement for short-term survival (24 hours) and proliferation (82 hours) of human ES cells: factor removed from TeSR, FIG. 6A; for cell survival and proliferation: FIG. 4A-B", "method": "(§1) (A) Dissociated H1 ES cells were plated into different media (Table 1) on […]-coated plates, and cell survival was measured 24 hours after plating. […] (B) The same ES cells from FIG. […] (C) Dissociated cells were plated in three different media, and initial survival was measured 22 hours after plating (blue column) Proliferation was measured 129 hours after plating (red column) The three media were TESR™, TESR without L-ascorbic acid (TESR-LAA) and a simplified medium containing DMEM/F 12, NaHCO3 LAA, insulin and FGF2 (*p<0.05, n=3). (D) H1 cells were maintained in defined media (DMEM/F12, NaHCO3, Insulin, FGF2 and LAA) for multiple passages with or without selenium. 150,000 starting cells were seeded in each passage on day 0, 4 and 7. (E) Human H1 cells were grown in DMEM/F12, NaHCO3, Insulin, FGF2, LAA and selenium with or without NODAL for four passages, and OCT4 expression was analyzed by FACS. Green peak: anti-OCT4 primary antibody with Alexa-488 secondary antibody; unshaded peak: mouse IgG control. (F) Transferrin was tested with cloning assay in defined media (DMEM/F12, NaHCO3, Insulin, FGF2, LAA, and Selenium); human foreskin iPS cells (Yu et al., Science 318:1917-1920 (2007)) were used in this particular experiment with ROCK inhibitor HA100 (10 μM) in hypoxic conditions (*p<0.05, n=3). […] (G) E8 medium (Table 1), TESR™ and conditioned medium (CM) were tested by cloning assay with HA100 (*p<0.05, n=3). Hypoxia conditions (5% O2 and 10% CO2, red column) and normoxic conditions (5% CO2, blue column) were used in the test (*p<0.05, n=3). […] (H) E8 medium and TESR™ were used to culture ES and iPS cells for long-term expansion, and the proliferation dynamics was recorded in the first seven passages. 200,000 H1 and human foreskin iPS cells (Yu et al., Science 324:797-801 (2009)) were plated in each passage in E8 and TESR™ media in hypoxic conditions.\nH1 cells were maintained in specific media for 5 days (2 passages), and RNA was purified for qRT-PCR to detect NANOG expression relative to GAPDH. […] A variety of basic media were used to make growth media with additional components (insulin, FGF2, LAA, Selenium, and NaHCO3). Dissociated H1 cells were plated in different media on […]-coated plates. […] Green peak: OCT4 antibody with Alexa-488 conjugated secondary antibody; Grey peak: mouse IgG control. […] Cells were treated with HA100 (10 μM) and Y27632) (10 μM) for 24 hours, and with blebbistatin (10 μM) for 4 hours (*p<0.05, n=3)."}, "H1 cells": {"test_system": "H1 cells", "assay": "Cloning assay", "assay_type": "cell-based, human", "method": "To determine how the various vitronectin variants affect cloning efficiency, the vitronectin polypeptide variants were tested in a cloning assay, essentially as described by Chen et al, Cell Stem Cell 7:240-248 (2010), incorporated herein by reference as if set forth in its entirety. Briefly, triplicates for each substrate were prepared in a 12-well plate. Prior to the addition of cells, 500 μL medium was added to each well. Cells were detached from their culture plate and dissociated with TrypLE for 5 minutes or until fully detached. TrypLE was neutralized with equal volumes of basic media, and the cells were counted, washed and then diluted to 5000 cells/mL. 100 μL of this cell suspension (500 cells) was added to each well. Plates were then incubated at 37° C., 5% O2 and 10% CO2 and the medium was changed every 1-2 day(s). After 5-6 days, colonies were stained with an APS kit (Vector Lab) following the manufacturer's instruction and counted."}, "human ES and iPS cells": {"test_system": "human ES and iPS cells", "assay": "Long-term expansion of ES and iPS cells in defined medium", "assay_type": "cell-based", "conditions": "for long-term culture stability of human ES and iPS cells: NODAL 100 ng/ml or TGFβ 2 ng/ml added to simple medium", "method": "as §1, with “FIG. 5A were cultured in the same media with daily media change, and proliferation was measured 96 hours after plating.” for “FIG.”"}, "[1]": {"test_system": "NANOG expression in H1 cells", "assay": "NANOG expression by qRT-PCR relative to GAPDH", "assay_type": "cell-based, human", "conditions": "NODAL 100 ng/ml or TGFβ 2 ng/ml in defined media; FIG. 6B", "method": "FIG. 6 illustrates media components supporting human pluripotent stem cells. […] When those factors were removed, H1 ES cells survived (24 hours, blue columns) and proliferated (82 hours, red columns) as well as in TeSR. […] H1 cells were maintained in specific media for 5 days (2 passages), and RNA was purified for qRT-PCR to detect NANOG expression relative to GAPDH. (C) DMEM/F12 basic media is among the best basic media in the screen that supports human ES cell survival and proliferation. A variety of basic media were used to make growth media with additional components (insulin, FGF2, LAA, Selenium, and NaHCO3). Dissociated H1 cells were plated in different media on MATRIGEL-coated plates. Cell survival was measured at 24 hours (blue column) and cell proliferation at 52 hours (red column) (D) Defined media (DMEM/F12, insulin, FGF2, LAA, and Selenium) with NODAL supports pluripotency of human iPS cells. Flow cytometry detected high expression of pluripotency marker OCT4 in two iPS cell lines. Green peak: OCT4 antibody with Alexa-488 conjugated secondary antibody; Grey peak: mouse IgG control. Similar results were also obtained from H1 and H9 ES cells maintained in the same media. (E) Normal karyotypes were maintained after long-term passage for those iPS cells shown above. […] High OCT4 expression was detected in H1 and iPS cells. […]"}, "human foreskin iPS cells": {"test_system": "human foreskin iPS cells", "assay": "Cloning assay in defined media with transferrin", "assay_type": "cell-based", "conditions": "defined media with HA100 (10 μM), hypoxic conditions; FIG. 4F", "method": "FIG. 4 presents media components supporting human ES cell survival and proliferation. (A) Dissociated H1 ES cells were plated into different media (Table 1) on MATRIGEL-coated plates, and cell survival was measured 24 hours after plating. […] (B) The same ES cells from FIG. 5A were cultured in the same media with daily media change, and proliferation was measured 96 hours after plating. […] (C) Dissociated cells were plated in three different media, and initial survival was measured 22 hours after plating (blue column) Proliferation was measured 129 hours after plating (red column) The three media were […] without L-ascorbic acid (TESR-LAA) and a simplified medium containing DMEM/F 12, NaHCO3 LAA, insulin and FGF2 (*p<0.05, n=3). (D) H1 cells were maintained in defined media (DMEM/F12, NaHCO3, Insulin, FGF2 and LAA) for multiple passages with or without selenium. 150,000 starting cells were seeded in each passage on day 0, 4 and 7. (E) Human H1 cells were grown in DMEM/F12, NaHCO3, Insulin, FGF2, LAA and selenium with or without NODAL for four passages, and OCT4 expression was analyzed by FACS. Green peak: anti-OCT4 primary antibody with Alexa-488 secondary antibody; unshaded peak: mouse IgG control. […] (H) E8 medium and […] were used to culture ES and iPS cells for long-term expansion, and the proliferation dynamics was recorded in the first seven passages. […]"}, "[2]": {"conditions": "added to defined medium, FIG. 6G"}, "[3]": {"conditions": "TESR components in absence of BSA and BME"}}, "data": [{"molecule": "Cc1ccc2c(c1)C(=O)C1(O)CCN(c3ccccc3)C1=N2", "note": "(stereo not drawn) [blebbistatin, reference compound]", "values": [{"measurement": "initial survival of human ES cells", "setting": "H1 ES cells", "value": "improved initial survival"}, {"measurement": "cloning efficiency", "setting": "H1 cells; [2]", "value": "supported a high cloning efficiency"}]}, {"molecule": "C[C@@H](N)[C@H]1CC[C@H](C(=O)Nc2ccncc2)CC1", "note": "[Y27632, reference compound]", "values": [{"measurement": "initial survival of human ES cells", "setting": "H1 ES cells", "value": "improved initial survival"}, {"measurement": "cloning efficiency", "setting": "H1 cells; [2]", "value": "supported a high cloning efficiency"}]}, {"molecule": "[Cl-].[Li+]", "note": "[LiCl]", "values": [{"measurement": "requirement for short-term survival (24 hours) and proliferation (82 hours) of human ES cells", "setting": "H1 ES cells", "value": "not required for short-term survival and proliferation"}]}, {"molecule": "TGFβ", "values": [{"measurement": "long-term culture stability of human ES and iPS cells", "setting": "human ES and iPS cells", "value": "consistent long-term culture stability"}, {"measurement": "requirement for short-term survival (24 hours) and proliferation (82 hours) of human ES cells", "setting": "H1 ES cells", "value": "not required for short-term survival and proliferation"}, {"measurement": "NANOG expression levels", "setting": "[1]", "value": "increased NANOG expression levels"}]}, {"molecule": "[Se]", "note": "[selenium]", "values": [{"measurement": "long-term sustained growth", "setting": "human ES and iPS cells; defined media, multiple passages, FIG. 4D", "value": "necessary for long-term sustained growth"}]}, {"molecule": "O=C(O)C1CCCCN1", "note": "(stereo not drawn) [Pipecolic acid]", "values": [{"measurement": "requirement for short-term survival (24 hours) and proliferation (82 hours) of human ES cells", "setting": "H1 ES cells", "value": "not required for short-term survival and proliferation"}]}, {"molecule": "FGF2: growth factor medium component", "values": [{"measurement": "cell survival and proliferation", "setting": "H1 ES cells; [3]", "value": "remained important for cell survival and proliferation"}]}, {"molecule": "NCCCC(=O)O", "note": "[GABA]", "values": [{"measurement": "requirement for short-term survival (24 hours) and proliferation (82 hours) of human ES cells", "setting": "H1 ES cells", "value": "not required for short-term survival and proliferation"}]}, {"molecule": "transferrin: protein medium component of E8", "values": [{"measurement": "cloning efficiency on addition of transferrin", "setting": "human foreskin iPS cells", "value": "further increased"}]}, {"molecule": "Insulin: medium component", "values": [{"measurement": "cell survival and proliferation", "setting": "H1 ES cells; [3]", "value": "remained important for cell survival and proliferation"}]}, {"molecule": "O=C1O[C@H]([C@@H](O)CO)C(O)=C1O", "note": "[L-ascorbic acid]", "values": [{"measurement": "ES cell proliferation", "setting": "H1 ES cells; TESR components in absence of BSA and BME, FIG. 4C", "value": "promoted ES cell proliferation"}]}, {"molecule": "O=S(=O)(c1cccc2cnccc12)N1CCNCC1", "note": "[HA100, reference compound]", "values": [{"measurement": "cell survival after dissociation", "setting": "H1 ES cells; 10 μM, TeSR, p<0.05, n=3", "value": "improved cell survival after dissociation"}, {"measurement": "initial survival of human ES cells", "setting": "H1 ES cells", "value": "improved initial survival"}, {"measurement": "cloning efficiency", "setting": "H1 cells; E8 media, 10 μM for 24 hours, p<0.05, n=3", "value": "improved cloning efficiency as efficiently as Y27632 and blebbistatin"}, {"measurement": "cloning efficiency", "setting": "H1 cells; [2]", "value": "supported a high cloning efficiency"}]}, {"molecule": "NODAL: growth factor medium component, 100 ng/mL, interchangeable with TGFβ in E8 media (protein, UniProt Q96S42 238-347, looked up) Nodal homolog: HHLPDRSQLCRKVKFQVDFNLIGWGSWIIYPKQYNAYRCEGECPNPVGEEFHPTNHAYIQSLLKRYQPHRVPSTCCAPVKTKPLSMLYVDNGRVLLDHHKDMIVEECGCL", "values": [{"measurement": "long-term culture stability of human ES and iPS cells", "setting": "human ES and iPS cells", "value": "consistent long-term culture stability"}, {"measurement": "NANOG expression levels", "setting": "[1]", "value": "increased NANOG expression levels"}]}]}
